Where two headings read alike, the source gives them in different places.

For test [1], the target named is T1, OR10J5 (Homo sapiens, UniProt Q8NHC4, R233W).
T1 construct: Lucy (cleavable leucine-rich signal peptide) (N); FLAG (N); Rho (first 20 aa of bovine rhodopsin) (N); expressed in transfected cells
T1 sequence (Q8NHC4 1-309 R233W): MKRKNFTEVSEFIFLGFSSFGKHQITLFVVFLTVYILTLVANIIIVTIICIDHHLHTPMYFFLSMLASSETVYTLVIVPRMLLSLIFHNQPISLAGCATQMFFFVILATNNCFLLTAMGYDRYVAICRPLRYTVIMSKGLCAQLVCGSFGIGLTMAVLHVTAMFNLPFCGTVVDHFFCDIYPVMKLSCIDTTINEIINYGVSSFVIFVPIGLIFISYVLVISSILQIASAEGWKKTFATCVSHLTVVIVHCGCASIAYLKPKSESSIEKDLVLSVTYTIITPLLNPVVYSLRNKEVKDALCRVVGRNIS
Nature of the test: OR10J5 (+−)-2,5-dimethyl-2-indanmethanol dose-response with test compound. Type of test: cell-based. The procedure: OR10J5 activity enhancement was tested with an additional agonist and with one of the test compounds and conditions described in the Examples above. Dose response curves to (+−)-2,5-dimethyl-2-indanmethanol was obtained in the presence of a steady concentration of the test compound and compared to a dose-response curve of the agonist alone. The resulting enhancement was quantified by means of EC50-fold shift (potency increase) and the efficacy span ratio (efficacy increase) as described above.

For test [2], the target named is T1, OR10J5. Nature of the test: OR10J5 LYRAL® dose-response at serial enhancer concentrations, allosteric EC50 shift model. The class given is cell-based. The procedure:
Functional dose-response experiments were performed to reveal the allosteric nature of the interaction between heliopropanal, 3-(4-methylcyclohex-3-en-1-yl)butanal, melonal and heptanal and OR10J5. The level of enhancement of OR10J5's activation was evaluated at distinct concentrations of each enhancer. Using the same cell-based assay described earlier, dose response curves of OR10J5 to LYRAL® in the presence of serial concentrations of the enhancers spanning from 0 to 600 μM were performed, see FIG. 19. The curves were obtained by applying the simplified Allosteric EC50 shift effect equation (available in Prism7) derived from the ternary complex interaction model. The enhancement levels recorded were not linearly dependent on the concentration of the enhancer, and the following key parameters values for α (the cooperativity factor) and KB (the equilibrium dissociation constant of the enhancer) were obtained from the model for each enhancer: heliopropanal, α=6.3 and KB=10 μM; 3-(4-methylcyclohex-3-en-1-yl)butanal, α=7.5 and KB=15 μM; melonal, α=4.1 and KB=16 μM; and heptanal; α=3.2 and KB=51 μM. α>1 is indicative of positive allosteric modulation.

In another test the target is T2, OR5AN1 (Homo sapiens, UniProt Q8NGI8).
T2 construct: FLAG (N); Rho (first 20 aa of bovine rhodopsin) (N); expressed in transfected cells
T2 sequence (Q8NGI8 1-311): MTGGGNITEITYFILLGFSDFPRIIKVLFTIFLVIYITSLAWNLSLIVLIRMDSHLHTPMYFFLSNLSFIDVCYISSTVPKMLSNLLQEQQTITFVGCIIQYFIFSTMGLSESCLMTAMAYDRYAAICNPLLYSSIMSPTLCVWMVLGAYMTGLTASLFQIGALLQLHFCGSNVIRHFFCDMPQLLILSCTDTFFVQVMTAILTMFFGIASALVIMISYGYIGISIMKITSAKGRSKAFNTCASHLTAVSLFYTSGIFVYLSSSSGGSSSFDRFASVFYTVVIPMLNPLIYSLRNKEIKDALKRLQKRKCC
Nature of the test: OR5AN1 MUSCENONE® dose-response at serial enhancer concentrations, allosteric EC50 shift model. The class given is cell-based. The following applies: enhancer 0 to 1 mM; for Kb: read-out: KB (equilibrium dissociation constant). Here is the method:
The level of enhancement of OR5AN1's activation was evaluated at distinct concentrations of the enhancer. […] The curves were obtained by applying the simplified Allosteric EC50 shift effect equation (available in Prism5, v. 5.02) derived from the ternary complex interaction model. The enhancement levels recorded were not linearly dependent on the concentration of the enhancer, and the following key parameters values for a (the cooperativity factor) and KB (the equilibrium dissociation constant of TDA) obtained from the model: α=15.7 and KB=259 μM. α>1 is indicative of positive allosteric modulation.

For test [3], the target named is T3, OR10J5 olfactory receptor (Homo sapiens, UniProt Q8NHC4, R233W).
T3 construct: Lucy (cleavable leucine-rich signal peptide) (N); FLAG (N); Rho (first 20 aa of bovine rhodopsin) (N); expressed in transfected cells
T3 sequence (Q8NHC4 1-309 R233W): T1 sequence (Q8NHC4 1-309 R233W)
Nature of the test: Single point binary mixture screen (LYRAL® + test compound) for OR10J5 activity enhancement. Type of test: cell-based. The conditions noted are these: LYRAL® 4.6 and test compound 300 μM; numbered by decreasing OR10J5 activity (span). From the text:
The Lucy-Flag-Rho-tagged receptor is co-transfected with the olfactory canonical G-protein Golf and exposed to a binary mixture of a single concentration of a floral muguet compound and a test compound.
A dose response curve showing the activation of OR10J5 in response to the floral muguet compound […], 4-(4-hydroxy-4-methylpentyl)cyclohex-3-ene-1-carbaldehyde or a mixture thereof (sold under the tradename LYRAL®, hereinafter referred to as “LYRAL®”) is shown in FIG. 15. Using a cell-based assay, OR10J5 activity was tested in a HEK293T cell line wherein the endogenous chaperone RTP1 gene has been activated and the odorant receptor chaperone was expressed according to the methods disclosed in International Patent Application Publication No. WO2016/201153 A1. The Flag-Rho-tagged receptor was co-transfected with the olfactory canonical G-protein Golf and was exposed to a binary mixture of a single concentration of LYRAL® and a test compound.
A library of volatile compounds was used to create binary mixtures of each compound with LYRAL® at approximately EC20, a concentration eliciting only approximately 20% of full activity level of OR10J5 by itself. An activation cell-based assay was used for the initial enhancer candidate identification. Single binary mixture-induced receptor activity was detected by measuring the cAMP increase in the cytosol using an HTRF (Homogenous Time-Resolved Fluorescence unit) based kit (CisBio, cAMP dynamic 2 kit, 62AM4PEJ).
800 binary mixtures were created by mixing a LYRAL® stock solution with a stock solution of each test compound to a final concentration 4.6 and 300 μM, respectively. Stock solutions were made of compounds dissolved in pure DMSO. Each mixture was presented to a cell line expressing the OR10J5 olfactory receptor. The final concentration of DMSO in each binary mixture was 0.1%, and had no visible effect on the cells (see FIG. 16).
The resulting activation was then measured and compared to LYRAL® alone (defining the baseline of the enhancement assay). The quality of the HTS process was determined and the window variability and signal reliability were assessed by calculating the Z′ value of each plate. […] These OR10J5 olfactory receptor agonists further confirmed that the dynamic range of the assay window was sufficient (as the responses recorded were well above baseline) and thus likely sensitive enough to detect even low levels of putative enhancement.

Another test relates to human panelists. The test is described as follows: Human MUSCENONE® odor detection threshold (ODT), forced-choice triangle tests with background odor. Type of test: in vivo. The conditions noted are these: background compound at 0.1%; 2/3 correct responses. Here is the method: Sensitivity of human individuals to MUSCENONE® was evaluated by performing an odor detection threshold (ODT) test. The ODT test consisted of identifying the concentration for which 50%, preferably 66%, of the panelists are able to determine which of three containers contains the target compound MUSCENONE® in a forced-choice triangle tests. Two tests were performed to calculate the ODT in mixtures containing MUSCENONE® plus a perceivable background odor of chemically similar molecules a) the enhancer tridecylenic aldehyde and b) the non-enhancing volatile compound, nonanal.
27 panelists were given a series of triangle tests with increasing concentration of MUSCENONE® in the presence of nonanal at a concentration of 0.1%. Within each triangle test, the three samples contained nonanal at 0.1% and one sample also contained MUSCENONE®. In each triangle test, the panelists were asked to identify the one sample that was different from the other two samples. The ODT was calculated by fitting a non-linear regression model onto the data and calculating the MUSCENONE® concentration at which the proportion of correct responses was equal to 2/3 (66%, the midpoint between chance rate 1/3 and all correct answers 1). […]

The target of test [4] is T4, OR5AN1 olfactory receptor (Homo sapiens, UniProt Q8NGI8).
T4 construct: FLAG (N); Rho (first 20 aa of bovine rhodopsin) (N); expressed in transfected cells
T4 sequence (Q8NGI8 1-311): T2 sequence (Q8NGI8 1-311)
The test is described as follows: OR5AN1 dose-response of musk agonist with and without modulator, and of candidate alone (EC50 shift, span). Type of test: cell-based. The conditions noted are these: 250 μM of each compound. Here is the method:
15 candidates, marked as “enhancement” in Table 2 were identified. Strikingly, 80% of these putative enhancers (12/15) belonged to the same class of chemicals: unsaturated aliphatic aldehydes. Next, two parallel dose-response experiments to confirm the true enhancement properties of the potential candidates were performed. First, a dose-response of each individual candidate was performed to determine if it was an agonist by itself. Second, a MUSCENONE® dose-response curve in the presence and absence of a 250 μM concentration of the putative modulator was assessed for EC50 shifts.
Dose response curves to MUSCENONE® were obtained in the presence of 250 μM of each compound and compared to a dose-response curve of MUSCENONE® alone. The resulting enhancement was quantified by means of EC50-fold shift (potency increase) and the efficacy span ratio (efficacy increase).
The EC50-fold shift was obtained by […]. The span ratio was obtained by dividing the span of MUSCENONE®+compound by the reference span of MUSCENONE® alone. Specifically, diverse aliphatic α-β mono- or poly-unsaturated molecules have been compared.

The mark [5] stands for this setting: LYRAL®, enhancer 0 to 600 μM, read-out: KB (equilibrium dissociation constant of the enhancer).

In the case of `Cc1ccc2c(c1)CC(C)(CO)C2` (racemic) [(+−)-2,5-dimethyl-2-indanmethanol, reference compound], the “agonist type on OR10J5” value on OR10J5 [1] is on record as “partial agonist”.
For `CC1=CC[C@H](C(C)CC=O)CC1` (stereo partly shown) [3-(4-methylcyclohex-3-en-1-yl)butanal], the “α (cooperativity factor)” value at OR10J5 [2] (LYRAL®, enhancer 0 to 600 μM) is listed as 7.5. Also, the Kb at OR10J5 [2] (setting [5]) was found to be 15 µM.
The like results for `CCCCCCC=O` [Heptanal] were, in that order, 3.2 and 51 µM.
`CCCCCCCC=CC=O` [Hit 2-decenal, 2-decenal]: on OR5AN1, the “α (cooperativity factor)” value came to 37.3 and the Kb amounted to 264 µM.
`CC/C=C\CCCCC=O` [Hit 23]: the “Hit Type” value in test [3] is on record as “Enhancement”.
As for `CCCCCC=O` [Hit 24], the “Hit Type” value in test [3] is listed as “Enhancement”.
The same measure, in the same setting: as for `C[C@@H](CC=O)CCCC(C)(C)O` [Hit 25], the entry is “Agonist”; as for `CC(C)=CCCC1=CCC(C)(C=O)CC1` (stereo not shown) [Hit 26], “Enhancement”; as for `CC(C)=CCCC(C)C=O` (stereo not shown) [Hit 27], “Enhancement”.
The same measure, in the same setting: the result for `O=Cc1ccccc1` [Hit 28] reads “Enhancement”; that for `CCCCC/C=C/C=C/C=O` [Hit 32], “Enhancement”; that for `CCCCCCCCC=O` [Hit 33], “Enhancement”.
On the same count and under the same terms, as for `C=CC(C)CCCC(C)(C)O` (stereo not shown) [Hit 34], the entry is “Agonist”; as for `CCCCCCC1CCCC(=O)O1` (stereo not shown) [Hit 35], “Enhancement”.
In the case of `Cc1ccc(CC(C)C=O)cc1` (stereo not shown) [Hit 36], the “Hit Type” value in test [3] is listed as “Enhancement”.
On the same count and under the same terms, the result for `O=Cc1ccc2c(c1)OCO2` [Hit 37] reads “Enhancement”.
Same read-out and setting: as for `CC1=CC(C)C(C=O)C(C)C1` (stereo not shown) [Hit 39], the entry is “Enhancement”.
Same read-out and setting: the result for `CCc1occc(=O)c1O` [Hit 40] reads “Enhancement”.
Take `CCc1ccc(C=O)cc1` [Hit 41]: the “Hit Type” value in test [3] was “Enhancement”.
Same read-out and setting: as for `C[C@@H]1CC[C@H]2[C@H](C)C(=O)O[C@@H]2C1` [Hit 42], the entry is “Enhancement”; as for `COC(C)(C)CCCC(C)C=O` (stereo not shown) [Hit 43], “Enhancement”.
For `CCCCCC/C=C/C=O` [Hit 44], the “Hit Type” value in test [3] is given as “Enhancement”.
On to `CCCCCC/C=C/C=O` [Nonylenic aldehyde], for which, at OR5AN1, the “α (cooperativity factor)” value was found to be 28.8 and the Kb is 96 µM.
As for `CC(C=O)Cc1ccc2c(c1)OCO2` (stereo not shown) [heliopropanal], at OR10J5 [1] (within the dynamic range of the dose response), the “efficacy increase of (+−)-2,5-dimethyl-2-indanmethanol” value is on record as 1.7 fold. For the same compound, the Kb at OR10J5 [2] came to 10 µM. Further, the “α (cooperativity factor)” value on OR10J5 [2] (LYRAL®, enhancer 0 to 600 μM) is 6.3.
Take `CC(C)=CCCC(C)C=O` (stereo not shown) [melonal]: the “α (cooperativity factor)” value at OR10J5 [2] (LYRAL®, enhancer 0 to 600 μM) amounted to 4.1. The Kb on OR10J5 [2] (setting [5]) came out at 16 µM.
Regarding `CCCCCCCCC=O` [nonanal, reference compound], the “MUSCENONE® ODT value when mixed with the compound” value in the test with human panelists is on record as 0.93%.
`C=CCCCCCCCCC(=O)O` [undecenoic acid]: in test [4], the “enhancement of OR5AN1 MUSCENONE® response (SAR)” value is “absence of enhancement”.

These data come from patent US11921105B2, “Method for identifying positive allosteric modulators for odorant receptors” (FIRMENICH SA, priority 2017, dated 2024).
